pIC50: −log10 of the molar value. Read-outs that look alike come from different tables or passages of the source.
Tests used:
[1] = test system: agonist-dependent nuclear export of HDAC5; assay: HDAC5 nuclear export assay (GFP-HDAC5, Cellomics imaging); assay type: cell-based; conditions: Rattus norvegicus, Ventricular myocyte, 2 h, read-out: Inhibitory Activity HDAC
Description: Compounds are evaluated in the HDAC5 nuclear export assay, a 384-well plate-based assay that enables high throughput screening (HTS) to identify small molecules that block agonist-dependent nuclear export of HDAC5. […] Neonatal rat ventricular myocytes (NRVMs) are infected with GFP-HDAC5 encoding virus and plated on gelatin-coated 384-well dishes. […] Following two hours of stimulation, cells are fixed and GFP-HDAC5 localization quantified using the Cellomics system, which provides a read-out of relative fluorescence intensity in the cytoplasmic versus nuclear compartment.

protein kinase D1 (PKD1) = biological target: T1, protein kinase D1 (PKD1) (Homo sapiens, UniProt Q15139); assay: PKD1 TR-FRET (LANCE) kinase assay; assay type: biochemical; conditions: full length wild-type enzyme, 20 μM ATP, syntide-2 substrate; read-out: Inhibitory Activity PKD1
T1 construct: This assay is performed with full length wild-type enzyme that is expressed and purified from Sf9 insect cells; made in house; host or cells: Sf9 insect cells
T1 sequence (Q15139 1-912): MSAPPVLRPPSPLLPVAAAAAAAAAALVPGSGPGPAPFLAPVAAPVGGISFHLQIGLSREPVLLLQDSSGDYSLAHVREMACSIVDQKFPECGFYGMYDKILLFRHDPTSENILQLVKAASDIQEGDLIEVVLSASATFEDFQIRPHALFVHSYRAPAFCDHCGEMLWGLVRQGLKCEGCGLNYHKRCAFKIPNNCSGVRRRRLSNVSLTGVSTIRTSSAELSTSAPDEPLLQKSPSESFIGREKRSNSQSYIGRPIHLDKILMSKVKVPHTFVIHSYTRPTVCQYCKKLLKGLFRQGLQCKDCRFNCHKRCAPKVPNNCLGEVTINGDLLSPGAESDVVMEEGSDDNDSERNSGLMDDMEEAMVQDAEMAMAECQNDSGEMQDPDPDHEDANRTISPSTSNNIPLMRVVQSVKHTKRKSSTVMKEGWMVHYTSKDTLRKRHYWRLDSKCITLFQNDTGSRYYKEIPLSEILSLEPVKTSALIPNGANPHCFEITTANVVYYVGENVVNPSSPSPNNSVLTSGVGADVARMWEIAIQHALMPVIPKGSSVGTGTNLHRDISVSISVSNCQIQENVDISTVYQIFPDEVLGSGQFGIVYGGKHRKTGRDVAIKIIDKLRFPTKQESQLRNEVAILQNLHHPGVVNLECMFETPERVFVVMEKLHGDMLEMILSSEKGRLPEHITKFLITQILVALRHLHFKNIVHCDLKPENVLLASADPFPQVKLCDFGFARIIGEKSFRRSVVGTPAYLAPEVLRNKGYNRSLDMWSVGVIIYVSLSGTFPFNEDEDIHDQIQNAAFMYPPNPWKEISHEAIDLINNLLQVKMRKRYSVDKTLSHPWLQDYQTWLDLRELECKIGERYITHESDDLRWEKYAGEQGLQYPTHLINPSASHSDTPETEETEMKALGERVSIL
Excerpt: The assay to measure protein kinase D1 (PKD1) activity is a time-resolved fluorescence resonance transfer (TR-FRET) assay using PerkinElmer's LANCE™ technology. In this case, a biotinylated syntide-2 peptide is used as the substrate in this reaction. Phosphorylation of the syntide-2 substrate is detected by a specific antibody that recognizes the phosphorylated peptide. A second fluorophore, APC, is conjugated to streptavidin that binds the biotinylated syntide-2 peptide. […] Therefore, when the europium labeled secondary antibody binds on the phosphorylated peptide, it is brought into close contact with the APC and excites this fluorophore.
This assay is performed with full length wild-type enzyme that is expressed and purified from Sf9 insect cells. The reaction buffer consists of 35 mM Tris-HCl pH7.5, 5 mM MgCl2, 0.02% Tween-20, 20 μM ATP, 1 mM DTT and 0.2 μg/mL PKD1 enzyme. The enzyme reaction is initiated by the addition of 2 μM syntide-2 peptide substrate and the reaction carried out for 50 minutes at room temperature. The reaction is stopped by a stop/detection Buffer consisting of 50 mM EDTA, 0.18 mg/mL rabbit polyclonal anti-phospho Syntide-2 antibody, 0.5 nM europium labeled anti-rabbit IgG and 10 nM streptavidin conjugated APC. […] IC50 values are calculated using an Activity Base (IDBS) software program.

[2] = neonatal rat ventricular myocytes, PGF2α stimulation, two hours

Row | SMILES | pIC50 [1, 2] | pIC50 (protein kinase D1 (PKD1)) | pIC50 [1]
1 | c1cc(-c2cc(-c3nnco3)cc(N3CCNCC3)n2)cc(NC2CCCCC2)n1 [Cyclohexyl-(4-[1,3,4]oxadiazol-2-yl-6-piperazin-1-yl-[2,4′]bipyridinyl-2′-yl)-amine] | 6.90 | 7.92 | –
2 | Nc1cc(-c2ccnc(NC3CCCCC3)c2)nc(N2CCNCC2)c1 [N*2′*-Cyclohexyl-6-piperazin-1-yl-[2,4′]bipyridinyl-4,2′-diamine] | 6.38 | 8.00 | –
3 | FC(F)(F)c1cc(-c2ccnc(NC3CCCCC3)c2)nc(N2CCNCC2)c1 [Cyclohexyl-(6-piperazin-1-yl-4-trifluoromethyl-[2,4′]bipyridinyl-2′-yl)amine] | – | 7.70 | 6.47
4 | O=C1NCc2c1cc(-c1ccnc(NC3CCCCC3)c1)nc2N1CCn2cnnc2C1 [6-(2-Cyclohexylamino-pyridin-4yl)-4-(5,6-dihydro-8H-[1,2,4]triazolo[4,3-a]pyrazin-7-yl)-2,3-dihydro-pyrrolo[3,4-c]pyridin-1-one] | < 6.00 | 7.25 | –
5 | O=[N+]([O-])c1cc(-c2ccnc(NC3CCCCC3)c2)nc(N2CCNCC2)c1 [Cyclohexyl-(4-nitro-6-piperazin-1-yl-[2,4′]bipyridinyl-2′-yl)-amine] | 6.63 | 8.40 | –
6 | CS(=O)(=O)c1cc(-c2ccnc(NC3CCCCC3)c2)nc(N2CCNCC2)c1 [Cyclohexyl-(4-methanesulfonyl-6-piperazin-1-yl-[2,4′]bipyridinyl-2′-yl)-amine] | < 6.00 | 7.20 | –
7 | NC(=O)c1cc(-c2ccnc(NCc3ccccc3Cl)c2)nc(N2CCNCC2)c1 [2′-(2-Chlorobenzylamino-6-piperazin-1-yl-[2,4′]bipyridinyl-4-carboxylic acid amide] | – | 7.60 | –
8 | COC(=O)c1ccc(-c2ccnc(NC3CCCCC3)c2)nc1N1CCNCC1 [2′-Cyclohexylamino-6-piperazin-1-yl-[2,4′]bipyridinyl-5-carboxylic acid methyl ester] | < 6.00 | 7.08 | –
9 | NC(=O)c1cc(-c2ccnc(NCCc3ccc(O)cc3)c2)nc(N2CCNCC2)c1 [2′-[2-(4-Hydroxyphenyl)ethylamino]-6-piperazin-1-yl-[2,4′]bipyridinyl-4-carboxylic acid amide] | – | 8.70 | –
10 | NC(=O)c1cc(-c2ccnc(NC3CCCCC3)c2)nc(N2CCN3CCC[C@@H]3C2)c1 [2′-Cyclohexylamino-6-(R)-hexahydro-pyrrolo[1,2-a]pyrazin-2-yl-[2,4′]bipyridinyl-4-carboxylic acid amide] | 6.21 | 7.46 | –
11 | N#CCNC(=O)c1ccc(-c2ccnc(NC3CCCCC3)c2)nc1N1CCNCC1 [2′-Cyclohexylamino-6-piperazin-1-yl-[2,4′]bipyridinyl-5-carbonxylic acid cyanomethyl-amide] | < 6.00 | 7.22 | –
12 | Fc1ccc(Nc2cc(-c3ccnc(NC4CCCCC4)c3)nc(N3CCNCC3)c2)cc1 [N*2′*-Cyclohexyl-N*4*-(4-fluoro-phenyl)-6-piperazin-1-yl-[2,4′]bipyridinyl-4,2′-diamine] | 6.37 | 6.74 | –

— patent US20110092505A1, “ORGANIC COMPOUNDS” (priority 2008, published 2011)
